Active and inactive are the calls of the source. The calls are words filed in the database; no cut-off is given here.

The subject of series [1] is NSC. The series can be described thus: Induction of differentiation of Sprague-Dawley rat embryo cortex NSC assessed as TUJ1-positive neurons at 5 uM after 4 days by immunostaining method relative to DMSO-treated control. The format is functional.
The test system of series [2] is NSC. The series can be described thus: Induction of neurogenesis of Sprague-Dawley rat embryo cortex NSC assessed as increase in beta3 tubulin mRNA expression at 5 uM after 4 days by RT-PCR method relative to DMSO-treated control. The series is classed as functional.
Series [3] deals with NSC. The series can be described thus: Cytotoxicity against Sprague-Dawley rat embryo cortex NSC assessed as effect on morphology at 10 uM after 4 days by DAPI-based phase-contrast microscopy relative to DMSO-treated control. The settings on record: 96 h. The format is cell-based.
Series [4] has as its system NSC. The series can be described thus: Induction of neurogenesis of Sprague-Dawley rat embryo cortex NSC assessed as effect on morphology at 10 uM after 4 days by DAPI-based phase-contrast microscopy relative to DMSO-treated control. The series is classed as functional, cell-based.
Series [5] concerns NSC. As to the kind of experiment: Neuroprotective activity against Sprague-Dawley rat embryo cortex NSC assessed as reduction of bcl2 mRNA at 5 to 10 uM after 2 days by RT-PCR method relative to DMSO-treated control. The series is classed as functional, cell-based.
For series [6], the system named is NSC. As to the kind of experiment: Neuroprotective activity against Sprague-Dawley rat embryo cortex NSC assessed as […] of bcl2 to bax at 5 to 10 uM after 2 days by RT-PCR method relative to DMSO-treated control. The series is classed as functional, cell-based.
The test system of series [7] is NSC. The series can be described thus: Inhibition of astrocytogenesis of Sprague-Dawley rat embryo cortex NSC assessed as downregulation of hes1 mRNA expression after 4 days by RT-PCR method relative to DMSO-treated control. The series is classed as functional, cell-based.
In series [8] the test system is NSC. As to the kind of experiment: Neuroprotective activity against Sprague-Dawley rat embryo cortex NSC assessed as reduction of bax mRNA at 5 to 10 uM after 2 days by RT-PCR method relative to DMSO-treated control. The format is functional, cell-based.
In series [9] the test system is NSC. The series can be described thus: Cytotoxicity against Sprague-Dawley rat embryo cortex NSC assessed as shrinkage and rounding up of cells at 20 to 50 uM after 2 days by microscopy relative to DMSO-treated control in presence of EGF and FGF2. The settings on record: 48 h. The series is classed as cell-based.
For series [10], the system named is NSC. As to the kind of experiment: Inhibition of astrocytogenesis of Sprague-Dawley rat embryo cortex NSC assessed as downregulation of notch1 mRNA expression after 4 days by RT-PCR method relative to DMSO-treated control. The series is classed as functional, cell-based.
Series [11] concerns NSC. The series can be described thus: Antiproliferative activity against Sprague-Dawley rat embryo cortex NSC assessed as reduction in neurosphere volume at 5 to 10 uM after 5 days by neurosphere growth assay relative to DMSO-treated control in presence of EGF and FGF2. The series is classed as functional, cell-based.
In series [12] the test system is NSC. As to the kind of experiment: Induction of neurogenesis of Sprague-Dawley rat embryo cortex NSC assessed as increase in beta3 tubulin mRNA expression after 4 days by RT-PCR method relative to DMSO-treated control. The series is classed as functional, cell-based.
The test system of series [13] is NSC. The series can be described thus: Induction of neurogenesis of Sprague-Dawley rat embryo cortex NSC assessed as increase in neuroD mRNA expression after 4 days by RT-PCR method relative to DMSO-treated control. The format is functional, cell-based.
In series [14] the test system is NSC. The series can be described thus: Inhibition of astrocytogenesis of Sprague-Dawley rat embryo cortex NSC assessed as repression of gfap mRNA expression after 4 days by RT-PCR method relative to DMSO-treated control. The format is functional, cell-based.
The test system of series [15] is NSC. As to the kind of experiment: Cytotoxicity against Sprague-Dawley rat embryo cortex NSC assessed as cell viability at 1 to 50 uM after 2 days by MTT assay relative to DMSO-treated control. The series is classed as cell-based. Particulars: 48 h. On the technique in general: Tetrazolium dyes change colour on reduction, which living cells bring about.
Series [16] relates to NSC. As to the kind of experiment: Neuroprotective activity against Sprague-Dawley rat embryo cortex NSC assessed as […] of bcl2 to bax at 10 uM after 2 days by RT-PCR method relative to DMSO-treated control. The format is functional, cell-based.
Series [17] deals with NSC. As to the kind of experiment: Neuroprotective activity against Sprague-Dawley rat embryo cortex NSC assessed as reduction of bax mRNA at 10 uM after 2 days by RT-PCR method relative to DMSO-treated control. The series is classed as functional, cell-based.
For series [18], the system named is NSC. As to the kind of experiment: Neuroprotective activity against Sprague-Dawley rat embryo cortex NSC assessed as reduction of bcl2 mRNA at 10 uM after 2 days by RT-PCR method relative to DMSO-treated control. The series is classed as functional, cell-based.

As for `COc1ccc(NCC(O)Cn2c3ccc(Br)cc3c3cc(Br)ccc32)cc1` (stereo not drawn), in the series on NSC [1], the “fold change (FC)” value is recorded as 1.17.

As to `COc1cccc(N(CC(=O)Cn2c3ccc(Br)cc3c3cc(Br)ccc32)S(=O)(=O)c2ccc(C)cc2)c1`, the “fold change (FC)” value in the series on NSC [1] is given as 0.52.

In the case of `COc1cccc(NCC(=O)Cn2c3ccc(Br)cc3c3cc(Br)ccc32)c1`, in the series on NSC [1], the “fold change (FC)” value amounted to 1.02.

Regarding `OC(CNc1ccc(Cl)cc1)Cn1c2ccc(Br)cc2c2cc(Br)ccc21` (stereo not drawn), the “fold change (FC)” value with NSC [1] is 1.29.

In the case of `COc1ccc(NCC(O)Cn2c3ccc(Br)cc3c3cc(Br)ccc32)cc1OC` (stereo not drawn), the “fold change (FC)” value with NSC [2] is reported as 1.47; in the series on NSC [1], 1.67. For the same molecule, in the series on NSC [3], the Activity entry is “Toxic”.

As for `COc1cccc(N(CC(Cn2c3ccc(Br)cc3c3cc(Br)ccc32)OC(C)=O)S(=O)(=O)c2ccc(C)cc2)c1` (stereo not drawn), the “fold change (FC)” value in the series with NSC [1] came out at 0.65.

As to `COc1cccc(NCC(O)Cn2c3ccc(Br)cc3c3cc(Br)ccc32)c1` (stereo not drawn), the “fold change (FC)” value with NSC [1] stood at 1.16.

Turning to `COc1cccc(N(CC(O)Cn2c3ccc(Br)cc3c3cc(Br)ccc32)S(=O)(=O)c2ccc(C)cc2)c1` (stereo not drawn), the outcome with NSC [4], in the series on NSC [5], with NSC [6], with NSC [8] and in the series with NSC [11] was Active. In addition, the “fold change (FC)” value with NSC [2] came to 1.43; in the series on NSC [1], 1.52. The inhibition entry in the series on NSC [7], in the series with NSC [10] and with NSC [14] was “Dose-dependent effect” in each case. Also, the Activity entry with NSC [9] was “Non-toxic”; in the series on NSC [12] it was “Dose-dependent effect”; in the series on NSC [13], “Dose-dependent effect”; in the series with NSC [15], “Non-toxic”.

Consider `OC(CNc1ccc2c(c1)OCO2)Cn1c2ccc(Br)cc2c2cc(Br)ccc21` (stereo not drawn), for which the “fold change (FC)” value with NSC [1] stood at 0.88.

On to `Cc1ccc(NCC(O)Cn2c3ccc(Br)cc3c3cc(Br)ccc32)cc1` (stereo not drawn), for which, in the series with NSC [3], the Activity result is listed as “Toxic”. Besides, in the series on NSC [1], the “fold change (FC)” value is reported as 1.88.

For `COc1cccc(N(CC(Cn2c3ccc(Br)cc3c3cc(Br)ccc32)OC)S(=O)(=O)c2ccc(C)cc2)c1` (stereo not drawn), in the series with NSC [1], the “fold change (FC)” value amounted to 0.73.

For `COc1cccc(N(CC(Cn2c3ccc(Br)cc3c3cc(Br)ccc32)OC)S(=O)(=O)c2ccc([N+](=O)[O-])cc2)c1` (stereo not drawn), the “fold change (FC)” value in the series on NSC [1] came to 0.92.

As to `COc1cccc(NCC(Cn2c3ccc(Br)cc3c3cc(Br)ccc32)OC)c1` (stereo not drawn), in the series on NSC [1], the “fold change (FC)” value is listed as 0.96.

With `COc1cccc(NCC(Cn2c3ccccc3c3ccccc32)OC(C)=O)c1` (stereo not drawn), in the series on NSC [1], the “fold change (FC)” value is 0.39.

`COc1cccc(NCC(F)Cn2c3ccc(Br)cc3c3cc(Br)ccc32)c1` (stereo not drawn): the outcome in the series on NSC [16] and in the series on NSC [18] was Active. Also, the values for the Activity entry with NSC [9] and in the series with NSC [15] were “Toxic” and “Non-toxic”, respectively. In the series on NSC [17], the outcome was inactive. In addition, in the series with NSC [1], the “fold change (FC)” value was found to be 1.16.

In the case of `COc1cccc(N(Cc2ccccc2)CC(O)Cn2c3ccc(Br)cc3c3cc(Br)ccc32)c1` (stereo not drawn), in the series with NSC [1], the “fold change (FC)” value worked out at 0.57.

As for `COc1cccc(N(C)CC(O)Cn2c3ccc(Br)cc3c3cc(Br)ccc32)c1` (stereo not drawn), the “fold change (FC)” value with NSC [1] stood at 1.42.

Consider `COc1cccc(N(CC(O)Cn2c3ccc(Br)cc3c3cc(Br)ccc32)C(C)=O)c1` (stereo not drawn), for which the “fold change (FC)” value with NSC [1] is 1.25.

With `COc1cccc(N(Cc2ccccc2)CC(F)Cn2c3ccc(Br)cc3c3cc(Br)ccc32)c1` (stereo not drawn), the “fold change (FC)” value in the series on NSC [1] turned out to be 0.58.

As for `OC(CNc1ccccc1)Cn1c2ccc(Br)cc2c2cc(Br)ccc21` (stereo not drawn), the “fold change (FC)” value in the series with NSC [1] is 1.47.

As to `COc1cccc(OCC(O)Cn2c3ccc(Br)cc3c3cc(Br)ccc32)c1` (stereo not drawn), the “fold change (FC)” value in the series on NSC [1] stood at 1.12.

With `COc1cccc(OCC(F)Cn2c3ccc(Br)cc3c3cc(Br)ccc32)c1` (stereo not drawn), in the series with NSC [1], the “fold change (FC)” value stood at 0.87.

Consider `COc1cccc(NCC(Cn2c3ccc(Br)cc3c3cc(Br)ccc32)OC(=O)OC(C)(C)C)c1` (stereo not drawn), for which the “fold change (FC)” value with NSC [1] was found to be 1.25.

With `COc1cccc(NCC(F)Cn2c3ccccc3c3cc(Br)ccc32)c1` (stereo not drawn), the “fold change (FC)” value with NSC [1] is on record as 0.86.

As to `COc1cccc(NC/C(Cn2c3ccc(Br)cc3c3cc(Br)ccc32)=N\O)c1`, in the series on NSC [1], the “fold change (FC)” value amounted to 1.13.

For `COc1cccc(NCC(Cn2c3ccc(Br)cc3c3cc(Br)ccc32)OC(C)=O)c1` (stereo not drawn), the “fold change (FC)” value in the series with NSC [1] was found to be 0.63.

`COc1cccc(NCC(F)Cn2c3ccccc3c3ccccc32)c1` (stereo not drawn): the “fold change (FC)” value in the series with NSC [1] worked out at 1.07.
